In the supplement of paper PMC10307832:

Columns and labels:
Test in all cases: relative viability (nuclei count vs DMSO), 5 days (fraction); higher = more cells survive
[1] = compound: C=C(c1ccc(C(=O)O)cc1)c1cc2c(cc1C)C(C)(C)CCC2(C)C [Bexarotene]
In short: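 Only plates meeting two conditions passed: control CV below 25% and at least one doubling. Lung cancer cell lines, kept overnight at 37 °C in 1536-well plates, were pinned with five library-drug doses (not always all listed) √10 apart on vehicle-anchored plates and grown 5 days without medium change. A one-step fix, permeabilisation and Hoechst stain preceded 4× imaging and MetaXpress nuclear counting. Viability equals treated-well nuclei divided by vehicle-well nuclei, as the median over plates.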

[2] = compound: C=C(c1ccc(C(=O)O)cc1)c1cc2c(cc1C)C(C)(C)CCC2(C)C [Bexarotene] + CC1(C)CCC(c2ccc(Cl)cc2)=C(CN2CCN(c3ccc(C(=O)NS(=O)(=O)c4ccc(N[C@H](CCN5CCOCC5)CSc5ccccc5)c(S(=O)(=O)C(F)(F)F)c4)cc3)CC2)C1 [Navitoclax] (partner 0.5 µM)
In short: (§1)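 Lung cancer cell lines in 1536-well plates got either a single drug or a fixed anchor-drug dose together with five library-drug doses (not always all listed) in √10 steps, by pin tool, on the day after seeding. Nuclei were counted after 5 days, and relative viability is the treated-to-vehicle ratio of nuclei counts. Values are medians of duplicate plates.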

[3] = compound: C=C(c1ccc(C(=O)O)cc1)c1cc2c(cc1C)C(C)(C)CCC2(C)C [Bexarotene] + Cc1cc(Nc2cc(N3CCN(C)CC3)nc(Sc3ccc(NC(=O)C4CC4)cc3)n2)n[nH]1 [Tozasertib] (partner 0.1 µM)
In short: as §1

[4] = compound: C=C(c1ccc(C(=O)O)cc1)c1cc2c(cc1C)C(C)(C)CCC2(C)C [Bexarotene] + N=C(N)NC(=N)NCCc1ccccc1 [Phenformin] (partner 250 µM)
In short: as §1

| Cell Line | relative viability ([1]; 0.08 µM) | relative viability ([1]; 0.253 µM) | relative viability ([1]; 0.8 µM) | relative viability ([1]; 2.53 µM) | relative viability ([1]; 8 µM) | relative viability ([2]; first compound 0.08 µM) | relative viability ([2]; first compound 0.253 µM) | relative viability ([2]; first compound 0.8 µM) | relative viability ([2]; first compound 2.53 µM) | relative viability ([2]; first compound 8 µM) | relative viability ([3]; first compound 0.08 µM) | relative viability ([3]; first compound 0.253 µM) | relative viability ([3]; first compound 0.8 µM) | relative viability ([3]; first compound 2.53 µM) | relative viability ([3]; first compound 8 µM) | relative viability ([4]; first compound 0.08 µM) | relative viability ([4]; first compound 0.253 µM) | relative viability ([4]; first compound 0.8 µM) | relative viability ([4]; first compound 2.53 µM) | relative viability ([4]; first compound 8 µM) |
| --- | --- | --- | --- | --- | --- | --- | --- | --- | --- | --- | --- | --- | --- | --- | --- | --- | --- | --- | --- | --- |
| NCI-H1651 | 1.08 | 0.987 | 1.01 | 1.02 | 1 | 1.1 | 1.09 | 1.11 | 1.22 | 0.925 | 0.929 | 0.64 | 0.741 | 0.594 | 0.791 | 0.446 | 0.318 | 0.307 | 0.357 | 0.345 |
| NCI-H1666 | 1.03 | 0.924 | 0.913 | 0.98 | 0.857 | 0.98 | 0.922 | 0.864 | 0.897 | 0.723 | 0.658 | 0.611 | 0.52 | 0.558 | 0.668 | 0.611 | 0.531 | 0.525 | 0.581 | 0.561 |
| NCI-H1734 | 1.04 | 0.966 | 0.989 | 0.881 | 0.879 | 0.804 | 0.877 | 0.795 | 0.781 | 0.815 | 0.281 | 0.244 | 0.26 | 0.285 | 0.257 | 0.414 | 0.339 | 0.421 | 0.335 | 0.382 |
| NCI-H1755 | 1.07 | 1.15 | 1.06 | 0.998 | 0.982 | 1.04 | 1.05 | 1.02 | 0.993 | 0.993 | 0.624 | 0.607 | 0.637 | 0.638 | 0.622 | 0.717 | 0.679 | 0.623 | 0.601 | 0.622 |
| NCI-H1793 | 1.12 | 0.93 | 0.754 | 0.838 | 0.881 | 0.351 | 0.556 | 0.332 | 0.35 | 0.464 | 0.308 | 0.319 | 0.394 | 0.287 | 0.337 | 0.51 | 0.386 | 0.36 | 0.37 | 0.358 |
| NCI-H1915 | 1.13 | 1.05 | 0.999 | 0.951 | 0.904 | 0.846 | 0.792 | 0.834 | 0.77 | 0.728 | 0.465 | 0.492 | 0.425 | 0.339 | 0.376 | 0.378 | 0.373 | 0.382 | 0.383 | 0.36 |
| NCI-H1944 | 1.29 | 1.07 | 1.07 | 1.25 | 1.03 | 1.03 | 0.97 | 0.945 | 0.972 | 0.986 | 0.323 | 0.29 | 0.307 | 0.299 | 0.257 | 0.278 | 0.238 | 0.228 | 0.238 | 0.218 |
| NCI-H1975 | 1.05 | 1.04 | 1.09 | 1.01 | 1.2 | 1.29 | 1.19 | 1.3 | 1.22 | 1.09 | 0.809 | 0.875 | 0.846 | 0.73 | 0.879 | 0.492 | 0.419 | 0.436 | 0.446 | 0.407 |
| NCI-H1993 | 1.09 | 0.919 | 0.788 | 0.862 | 0.832 | 1.11 | 1.03 | 0.878 | 0.924 | 0.841 | 0.544 | 0.576 | 0.604 | 0.527 | 0.613 | 0.527 | 0.553 | 0.572 | 0.576 | 0.557 |
| NCI-H2009 | 1.21 | 1.22 | 1.11 | 1.08 | 1.07 | 1.24 | 1.28 | 1.23 | 1.17 | 1.19 | 0.753 | 0.897 | 0.814 | 0.815 | 0.778 | 0.554 | 0.527 | 0.526 | 0.479 | 0.479 |
| NCI-H2023 | 1.05 | 0.958 | 1.01 | 0.921 | 0.771 | 0.991 | 0.993 | 0.921 | 0.851 | 0.729 | 0.395 | 0.385 | 0.417 | 0.328 | 0.283 | 0.437 | 0.483 | 0.443 | 0.422 | 0.344 |
| NCI-H2085 | 0.981 | 0.979 | 0.903 | 0.869 | 0.901 | 1.09 | 1.13 | 0.961 | 0.949 | 0.924 | 0.865 | 0.834 | 0.728 | 0.771 | 0.767 | 0.759 | 0.646 | 0.531 | 0.678 | 0.718 |
| NCI-H2087 | 1.08 | 1.12 | 1.02 | 1.03 | 0.892 | 1.11 | 0.944 | 1.1 | 0.848 | 0.759 | 0.254 | 0.314 | 0.211 | 0.179 | 0.258 | 0.527 | 0.475 | 0.451 | 0.433 | 0.435 |
| NCI-H2126 | 1.02 | 1.01 | 0.954 | 0.991 | 0.971 | 0.925 | 0.916 | 0.844 | 0.958 | 0.872 | 0.881 | 0.869 | 0.793 | 0.818 | 0.829 | 0.529 | 0.535 | 0.526 | 0.56 | 0.55 |
| NCI-H2170 | 0.96 | 0.969 | 0.942 | 0.909 | 0.831 | 0.578 | 0.606 | 0.615 | 0.55 | 0.559 | 0.729 | 0.631 | 0.654 | 0.63 | 0.614 | 0.457 | 0.403 | 0.388 | 0.357 | 0.361 |
